Test results as given in US10899754B2, “Modulators of indoleamine 2,3-dioxygenase” (GLAXOSMITHKLINE INTELLECTUAL PROPERTY DEVELOPMENT LIMITED, priority 2016, dated 2021).

Key:
Assay type in all cases: cell-based
[1] = system: human epithelial HeLa cells; experiment: HeLa cytotoxicity assay (CellTiter-Glo); conditions: pCC50
Method in brief: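 Read-out is CellTiter-Glo luminescence after 2 days at 37 °C, on IFN-γ-stimulated (10 nM) HeLa cells seeded at 5,000/well with compounds in 11-point 3-fold dose series. pCC50 from four-parameter curve fit; wells without cells set 100% cytotoxicity, stimulated cells with DMSO set 0%.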

[2] = system: human peripheral blood mononuclear cells (PBMC); experiment: PBMC cytotoxicity assay (CellTiter-Glo); conditions: 2 days, pCC50
Method in brief: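 % cytotoxicity was taken from CellTiter-Glo luminescence, using wells without cells and stimulated DMSO wells as references, and fitted by four-parameter curve to give XC50. Cells were human PBMC at 50,000 per well, activated with 100 ng/ml IFN-γ plus 50 ng/ml LPS. Incubation with 11-point, 3-fold dilution series ran for 2 days at 37 °C.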

[3] = molecular target: T1, indoleamine 2, 3-dioxygenase (IDO1) (Homo sapiens, UniProt P14902); experiment: IDO1 HeLa RapidFire MS assay (kynurenine detection by mass spectrometry); parameters: to induce the expression of indoleamine 2, 3-dioxygenase (IDO1); conditions: HeLa cells, pIC50, read-out: IDO1_HELA_PXC50 (converted)
Method in brief: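 Compound potency reported as pIC50 from kynurenine/internal-standard ratio (RapidFire MS) in supernatant of IFN-γ-induced (10 nM) HeLa cells, 5,000 per well, after 2 days' treatment with 11-point dilutions. Cytotoxicity in the same format by luminescent ATP detection, reported as pCC50.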

[4] = molecular target: T1, indoleamine 2, 3-dioxygenase (IDO1); experiment: IDO1 PBMC RapidFire MS assay (kynurenine detection by mass spectrometry); parameters: to induce the expression of indoleamine 2, 3-dioxygenase (IDO1); host or cells: human PBMC stimulated with IFN-gamma and LPS; conditions: human PBMC stimulated with IFN-γ and LPS, 2 days, pIC50, read-out: PBMC PXC50 (converted)
Method in brief: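 Kynurenine output, read by RapidFire mass spectrometry as ratio to an internal standard, was measured after 2-day compound exposure (11-point, 3-fold dilutions) of human PBMCs induced with 100 ng/ml IFN-γ and 50 ng/ml LPS. Cell viability tracked alongside via ATP luminescence; XC50 from curve fitting.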

T1 sequence (P14902 whole entry): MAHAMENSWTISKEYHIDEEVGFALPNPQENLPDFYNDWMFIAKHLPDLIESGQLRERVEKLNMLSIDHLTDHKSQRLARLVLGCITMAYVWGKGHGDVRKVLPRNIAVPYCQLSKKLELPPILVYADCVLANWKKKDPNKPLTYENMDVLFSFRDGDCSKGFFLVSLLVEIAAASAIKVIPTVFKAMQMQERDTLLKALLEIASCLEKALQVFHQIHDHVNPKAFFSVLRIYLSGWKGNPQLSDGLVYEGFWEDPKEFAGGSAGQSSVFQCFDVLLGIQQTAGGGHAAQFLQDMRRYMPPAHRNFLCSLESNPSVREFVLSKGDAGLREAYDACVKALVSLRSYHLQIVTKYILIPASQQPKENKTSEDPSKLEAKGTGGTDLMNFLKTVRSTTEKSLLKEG

SMILES	HELA_IDO1_TOX_PXC50 [1]	PBMC TOX PXC50 [2]	IC50 [3] [nM]	IC50 [4] [nM]
CC(C)CN(c1ccc(C(C)CC(=O)O)cc1NCc1ccc(F)c(F)c1)C1CCCCC1 (stereo not drawn) [example 162, 3-{4-[cyclohexyl(2-methylpropyl)amino]-3-{[(3,4-difluorophenyl)methyl]amino}phenyl}butanoic acid]	<5	<5	1000	398
CC(C)CN(c1cc(F)c([C@H](C)CC(=O)O)cc1Nc1ccc(Cl)nc1)C1CCOCC1 [Example 37, (R)-3-(5-((6-chloropyridin-3-yl)amino)-2-fluoro-4-(isobutyl(tetrahydro-2H-pyran-4-yl)amino)phenyl)butanoic Acid]	<5	<5	5.01	1.26
CC(C)CN(c1ccc(C(C)CC(=O)O)cc1NC1=NC(=O)[C@@H](c2ccccc2)N1)C1CCCCC1 (stereo partly drawn) [example 155, 3-{4-[cyclohexyl(2-methylpropyl)amino]-3-{[(5R)-4-oxo-5-phenyl-4,5-dihydro-1H-imidazol-2-yl]amino}phenyl}butanoic acid]	<5	<5	1000	1580
CC(C)CN(c1ccc([C@H](C)CC(=O)O)cc1Nc1cnc(C#N)cn1)C1CCOCC1 [Example 19, (R)-3-(3-((5-cyanopyrazin-2-yl)amino)-4-(isobutyl(tetrahydro-2H-pyran-4-yl)amino)phenyl)butanoic Acid]	<5	<5	5.01	2.51
CC(C)CN(c1ccc(C(C)CC(=O)O)cc1NC1=NC(=O)[C@H](c2ccccc2)N1)C1CCCCC1 (stereo partly drawn) [example 165, 3-{4-[cyclohexyl(2-methylpropyl)amino]-3-{[(5S)-4-oxo-5-phenyl-4,5-dihydro-1H-imidazol-2-yl]amino}phenyl}butanoic acid]	<5	<5	794	1580
CC[C@H](CC(=O)O)c1ccc(N(CC(C)C)C2CCCCC2)c(Nc2nc(C(F)(F)F)ns2)c1 [Example 38, (R)-3-(4-(cyclohexyl(isobutyl)amino)-3-((3-(trifluoromethyl)-1,2,4-thiadiazol-5-yl)amino)phenyl)pentanoic Acid]	<5	<5	2	0.794
CC(C)CN(c1ccc(-c2cccnc2C(=O)O)cc1Nc1nc2ccccc2o1)C1CCCCC1 [example 290, 3-{3-[(1,3-benzoxazol-2-yl)amino]-4-[cyclohexyl(2-methylpropyl)amino]phenyl}pyridine-2-carboxylic acid]	<5	<5	126	50.1
CC(C)CN(c1ccc(-c2ccccc2C(=O)O)cc1Nc1nc(C(F)(F)F)ns1)C1CCN(c2nc(C(F)(F)F)ns2)CC1 [Example 92, 4′-(isobutyl(1-(3-(trifluoromethyl)-1,2,4-thiadiazol-5-yl)piperidin-4-yl)amino)-3′-((3-(trifluoromethyl)-1,2,4-thiadiazol-5-yl)amino)-[1,1′-biphenyl]-2-carboxylic Acid]	<5	6.1	5.01	1
CC(C)CN(c1ccc([C@H](C)CC(=O)O)cc1Nc1nc(C(F)(F)F)cs1)C1CCOCC1 [Example 22, (R)-3-(4-(Isobutyl(tetrahydro-2H-pyran-4-yl)amino)-3-((4-(trifluoromethyl)thiazol-2-yl)amino)phenyl)butanoic Acid]	<5	<5	2.51	2.51
CC(C)CN(CC(C)C)c1ccc(C(C)CC(=O)O)cc1Nc1nc(-c2ccccc2)ns1 (stereo not drawn) [example 115, 3-{4-[bis(2-methylpropyl)amino]-3-[(3-phenyl-1,2,4-thiadiazol-5-yl)amino]phenyl}butanoic acid]	<4.3	4.9	3160	2000
CC(C)CN(c1ccc([C@H](C)CC(=O)O)cc1Nc1nc(C(F)(F)F)ns1)C1CCN(C(=O)OC(C)C)CC1 [Example 65, (R)-3-(4-(isobutyl(1-(isopropoxycarboxyl)piperidin-4-yl)amino)-3-((3-(trifluoromethyl)-1,2,4-thiadiazol-5-yl)amino)phenyl)butanoic Acid]	<5	<5	3.98	1.26
CNC(=O)N1CCC(N(CC(C)C)c2ccc([C@H](C)CC(=O)O)cc2Nc2nc(C(F)(F)F)ns2)CC1 [example 262, (3R)-3-(4-{[1-(methylcarbamoyl)piper-idin-4-yl](2-methylpropyl)amino}-3-{[3-(trifluoromethyl)-1,2,4-thiadiazol-5-yl]amino}phenyl)butanoic acid]	<5	<5	100	20
CC(C)CN(CC(C)C)c1ccc(-c2ccccc2C(=O)O)cc1Nc1nc(Cl)ns1 [example 294, 4′-[bis(2-methylpropyl)amino]-3′-[(3-chloro-1,2,4-thiadiazol-5-yl)amino]-[1,1′-biphenyl]-2-carboxylic acid]	<5	<5	39.8	20
CC(C)CN(CC(C)C)c1ccc(C2CC2C(=O)O)cc1Nc1nc(Cl)ns1 (stereo not drawn) [example 177, (1R*,2R**)-2-{4-[bis(2-methylpropyl)amino]-3-[(3-chloro-1,2,4-thiadiazol-5-yl)amino]phenyl}cyclo-propane-1-carboxylic acid]	<5	<5	158	31.6
CC(C)CN(c1ccc([C@H](C)CC(=O)O)cc1Nc1ccc(Cl)nc1)C1CCCCC1 [Example 74, (R)-3-(3-((6-chloropyridin-3-yl)amino)-4-(cyclohexyl(isobutyl)amino)phenyl)butanoic Acid]	<5	6.5	3.98	0.794
CC(C)CN(c1ccc(C(C)CC(=O)O)cc1Nc1nc(Cl)ns1)C1CCOCC1 (stereo not drawn) [Example 21, 3-(3-((3-chloro-1,2,4-thiadiazol-5-yl)amino)-4-(isobutyl(tetrahydro-2H-pyran-4-yl)amino)phenyl)butanoic Acid]	<5	5.2	31.6	2.51
CC(C)CN(c1ccc(C(C)CC(=O)O)cc1NC1=NC(=O)[C@@H](C)N1)C1CCCCC1 (stereo partly drawn) [example 163, 3-{4-[cyclohexyl(2-methylpropyl)amino]-3-{[(5R)-5-methyl-4-oxo-4,5-dihydro-1H-imidazol-2-yl]amino}phenyl}butanoic acid]	<5	<5	2000	3160
CC(C)CN(c1ccc([C@H](C)Cc2nnn[nH]2)cc1Nc1nc(C(F)(F)F)ns1)C1CCCCC1 [Example 101, (R)-4-(1-(1H-tetrazol-5-yl)propan-2-yl)-N^1-cyclohexyl-N^1-isobutyl-N^2-(3-(trifluoromethyl)-1,2,4-thiadiazol-5-yl)benzene-1,2-diamine]	<5	<5	2.51	1.58
